Data from US20240350460A1, “APPLICATION OF HYDRAZIDE COMPOUND IN TUMOR TREATMENT” (NANJING SHIJIANG MEDICINE TECHNOLOGY CO., LTD, priority 2021, published 2024).

Experiments:
Format in all cases: cell-based
NCI-H82 = experiment: Cell viability (Promega CellTiter-Glo), inhibitory effect on tumor cell line; details: NCI-H82, human small cell lung cancer cell; sensitive group; 3-4 days of culture; n=3
Protocol: Cell viability was detected using the Promega CellTiter-Glo kit, cell viability was determined by directly measuring intracellular ATP content. […] The name, source and culture conditions of each tumor cell line were as follows: […] HTB-175) was cultured in 10% fetal bovine serum-containing RPMI1640 medium (+P/S).

G-401 = experiment: as above; details: G-401, human renal carcinoma Wilms cell; sensitive group; 3-4 days of culture; n=3
Protocol: (§1) Cell viability was detected using the Promega CellTiter-Glo kit, cell viability was determined by directly measuring intracellular ATP content. […] The name, source and culture conditions of each tumor cell line were as follows: Cell line G-401 (ATCC, No. CRL-1441) was cultured in 10% fetal bovine serum-containing McCoy's 5a medium (+P/S).

MDA-MB-453 = experiment: as above; details: Homo sapiens; MDA-MB-453, breast cancer cell; sensitive group; 3-4 days of culture; n=3
Protocol: as §1, with “MDA-MB-453” for “G-401”, “HTB-131)” for “CRL-1441)”, “Leibovitz's L-15” for “McCoy's 5a”

SW48 = experiment: as above; details: SW48, human colon adenocarcinoma cell; sensitive group; 3-4 days of culture; n=3
Protocol: as §1, with “SW48” for “G-401”, “CCL-231)” for “CRL-1441)”, “Leibovitz's L-15” for “McCoy's 5a”

WSU-DLCL2 = experiment: as above; details: WSUDLCL2; WSU-DLCL2, human diffuse large B-cell lymphoma; sensitive group; 3-4 days of culture; n=3
Protocol: Cell viability was detected using the Promega CellTiter-Glo kit, cell viability was determined by directly measuring intracellular ATP content. […] The name, source and culture conditions of each tumor cell line were as follows: Cell line WSU-DLCL2 (DSMZ, No. ACC-575) was cultured in 10% fetal bovine serum-containing RPMI1640 medium (+P/S).

CFPAC-1 = experiment: as above; details: CFPAC-1, human pancreatic cancer cell; insensitive group; 3-4 days of culture; n=3
Protocol: as §1, with “CFPAC-1” for “G-401”, “CRL-1918)” for “CRL-1441)”, “IMDM” for “McCoy's 5a”

GB-1 = experiment: as above; details: GB-1, human glioblastoma cell; insensitive group; 3-4 days of culture; n=3
SF126 = experiment: as above; details: SF-126; SF126, human glioblastoma multiforme cell; insensitive group; 3-4 days of culture; n=3
Protocol: Cell viability was detected using the Promega CellTiter-Glo kit, cell viability was determined by directly measuring intracellular ATP content. […] The name, source and culture conditions of each tumor cell line were as follows: Cell line SF126 (JCRB, No. IFO50286) was cultured in 10% fetal bovine serum-containing EMEM medium (+P/S).

[1] = test system: control NCI-H82 cell (NCI-H82 (Con)); experiment: Cell viability (Promega CellTiter-Glo) on control NCI-H82 cell; details: Homo sapiens; NCI-H82 transfected with empty virus vector without NNMT gene; n=3
Source text: (§2) The NNMT protein-overexpressing NCI-H82 cell (NCI-H82 (ov-NNMT)) was obtained by inserting the NNMT gene into NCI-H82 cell using a viral vector. The control NCI-H82 cell (NCI-H82 (Con)) was obtained by transfecting NCI-H82 cell with empty virus vector without carrying NNMT gene.
(§3) The expressing level of NNMT protein in control NCI-H82 cell (NCI-H82 (Con)) and NNMT protein-overexpressing NCI-H82 cell (NCI-H82 (ov-NNMT)) was detected using Western Blot assay (as shown in FIG. 7), it could be seen from FIG. 7 that the NNMT protein in NCI-H82 (ov-NNMT) cell was overexpressed compared with the expression level of NNMT protein in NCI-H82 (Con) cell.

[2] = test system: NNMT protein-overexpressing NCI-H82 cell (NCI-H82 (ov-NNMT)); experiment: Cell viability (Promega CellTiter-Glo) on NNMT protein-overexpressing NCI-H82 cell; details: Homo sapiens; NCI-H82 overexpressing NNMT protein (NNMT gene inserted by viral vector); n=3
Source text: as §2, §3

786-O = experiment: Cell viability (Promega CellTiter-Glo), inhibitory effect on tumor cell line; details: Homo sapiens, 786-0, clear cell renal cell adenocarcinoma cell, insensitive group, 3-4 days of culture, n=3
Protocol: Cell viability was detected using the Promega CellTiter-Glo kit, cell viability was determined by directly measuring intracellular ATP content. […] The name, source and culture conditions of each tumor cell line were as follows: Cell line 786-O (ATCC, No. CRL-1932) was cultured in 10% fetal bovine serum-containing RPMI1640 medium (+P/S).

Row | SMILES | IC50 (NCI-H82) | IC50 (G-401) | IC50 (MDA-MB-453) | IC50 (SW48) | IC50 (WSU-DLCL2) | IC50 (CFPAC-1) | IC50 (GB-1) | IC50 (SF126) | IC50 [1] | IC50 [2] | IC50 (786-O)
1 | O=C1OCCN1/N=C/c1ccc([N+](=O)[O-])o1 [Furazolidone, furazolidone] | 8.31 µM | 5.77 µM | 7.73 µM | 8.23 µM | 9.04 µM | > 50 µM | 38.4 µM | > 50 µM | 8.22 µM | 18.5 µM | –
2 | O=C(N/N=C/c1ccc([N+](=O)[O-])o1)c1ccc(O)cc1 [Nifuroxazide, nifuroxazide] | 2.48 µM | 3.22 µM | 2.78 µM | 4.05 µM | 4.22 µM | > 50 µM | 20 µM | 16.4 µM | 2.41 µM | 5.01 µM | > 50 µM
